Seven molecules from patent publication US12286411B2, “Indane derivatives for use in the treatment of bacterial infection” (priority 2018, dated 2025) can be followed below.

Bounds are passed on as bounds.

In assay [1] the target is T1, LasB elastase (dialysed supernatant from P. aeruginosa PAO1) (Pseudomonas aeruginosa, UniProt P14756).
T1 construct: Culture supernatants are recovered by centrifugation and filtrated through a 0.22 μM filter; endogenous in cells; host or cells: P. aeruginosa PAO1 culture supernatant, dialysed
T1 sequence (P14756 198-498): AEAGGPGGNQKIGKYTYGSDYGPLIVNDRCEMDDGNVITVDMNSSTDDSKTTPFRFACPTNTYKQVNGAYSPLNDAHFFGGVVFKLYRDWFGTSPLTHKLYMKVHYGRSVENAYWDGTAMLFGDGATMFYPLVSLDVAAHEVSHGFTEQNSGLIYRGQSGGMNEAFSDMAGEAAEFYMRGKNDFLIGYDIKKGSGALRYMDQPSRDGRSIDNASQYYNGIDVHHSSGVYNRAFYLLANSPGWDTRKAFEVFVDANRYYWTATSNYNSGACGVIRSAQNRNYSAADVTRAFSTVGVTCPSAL
In words: Elastin assay to determine % inhibition (Elastin Congo-Red, dialysed PAO1 supernatant). The note with it: read-out: Elastin hydrolysis % inhibition @ 50/25 μM inhibitor concentration. Format: biochemical. On the procedure: Experiments were therefore conducted (1) to measure the potency of inhibition of compounds of the invention against purified Pseudomonas aeruginosa LasB enzyme and also experiments were conducted (2) to measure the ability of compounds of the invention to inhibit LasB-catalysed elastin degradation. The first assay uses a commercial fluorescent synthetic peptide and purified LasB enzyme. The LasB hydrolysis kinetics are measured allowing the determination of the IC50 and Ki of the inhibitors; the second is a more physiological assay using dialysed Pseudomonas aeruginosa supernatant as source of enzyme, plus its natural substrate Elastin. It is an “end point assay” that determines the percentage of LasB inhibition by each compound for one particular time point and inhibitor concentration. Technical details are described below:
The Elastin assay uses as source of enzyme dialysed supernatant from P. aeruginosa PAO1 and the Elastin Congo-Red as substrate. The natural LasB substrate, elastin, is complexed with the congo-red dye (Elastin Congo-Red, ECR). The elastolysis activity from the culture supernatant will degrade elastin and release the congo-red dye into the supernatant. This red dye release can be measured with a spectrophotometer.
Method: To determine LasB elastase activity and assess compound inhibition, an overnight culture of P. aeruginosa strain PA01 is diluted in LB medium. After reaching an ° Dam. of 0.6, this culture is diluted and incubated for additional 18-24 hours in a shaking incubator. Culture supernatants are recovered by centrifugation and filtrated through a […] filter. These supernatants are dialysed (filtration molecules <20 kDa) into a 50 mM Tris-HCl pH 7.4, 2.5 mM CaCl2 solution at 4° C. under agitation for 24 hours. Supernatant dialysed is then mixed volume/volume with the ECR suspension (20 mg/mL of ECR in 100 mM Tris-HCl pH 7.4 buffer supplemented with 1 mM CaCl2) supplemented with Triton X100 (final concentration of 0.01%) in presence of DMSO (positive control) and/or different concentrations of compound (routinely 50 to 1.56 μM). As a negative control, the dialysed supernatant is replaced by Tris-HCl solution (50 mM Tris-HCl pH 7.4, 2.5 mM CaCl2). The mixed reaction is then incubated overnight in a 37° C. shaking incubator. The reaction supernatant is recovered by centrifugation and the release of congo-red is measured by its absorbance at 495 nm (OD495nm).
Percentage inhibition is determined using the following equation: ((OD495nm value of positive control−OD495nm value of negative control)−(OD495nm value of treated supernatant OD495nm value of negative control))/(OD495nm value of positive control−OD495nm value of negative control)×100.

For assay [2], the system named is Pseudomonas aeruginosa (PAO1). Put plainly: Mouse model of Pseudomonas aeruginosa lung infection. Format: in vivo. The note with it: mice infected intranasally with wild-type PAO1, compound i.v. 1 h and 2 h post infection, 10 and 30 mg/kg, 24 hours post infection. On the procedure:
Mice were dosed by intranasal inoculation of PA (PAO1), then scarified after 24 hours. The extent of infection in the lung was quantified by bacterial load (CFU determination, colony forming units) and the levels of proinflammatory IL-1β. Statistical analysis on both readouts were performed by ANOVA with a Dunnett post-test.
Compounds were administered intravenously in a two-dose regimen (1 hour and 2 hours post infection) at two different doses (10 and 30 mg/kg).

Take `O=C(O)CC1(C(=O)NCc2nc3ccc(OCCCO)cc3s2)Cc2ccccc2C1` [Example 1, 2-[2-[[6-(3-hydroxypropoxy)-1,3-benzothiazol-2-yl]methylcarbamoyl]indan-2-yl]acetic acid]: the inhibition at 25 µM in assay [1] is over 75%.
Take `CCCOc1ccc2nc(CNC(=O)C3(CC(=O)O)Cc4ccccc4C3)sc2c1` [Example 2, 2-[2-[(6-propoxy-1,3-benzothiazol-2-yl)methylcarbamoyl]indan-2-yl]acetic acid]: the inhibition at 25 µM in assay [1] is over 75%.
`COc1cc2sc(CNC(=O)C3(CC(=O)O)Cc4ccccc4C3)nc2cc1OCCCN(C)C` [Example 3, 2-[2-[[5-[3-(dimethylamino)propoxy]-6-methoxy-1,3-benzothiazol-2-yl]methylcarbamoyl]indan-2-yl]acetic acid]: the inhibition at 25 µM in assay [1] is over 75%.
For the molecule `COc1cc2sc(CNC(=O)C3(CC(=O)[O-])Cc4ccccc4C3)nc2cc1OCCC[N+](C)(C)C` [Example 4, 2-[2-[[6-methoxy-5-[3-(trimethylammonio)propoxy]-1,3-benzothiazol-2-yl]methylcarbamoyl]indan-2-yl]acetate], the inhibition at 25 µM in assay [1] was over 75%. The “production and activation of IL-1β in the lung” value in assay [2] (FIG. 2) is “inhibited the production and activation of IL-1β in mice infected by wild-type PA (PA01) at a similar level than the lasB deleted mutant”. In assay [2] (FIG. 3), the “extent of infection in the lung (CFU levels)” value is given as “reduced the extent of infection in the lung to the level of the LasB deleted mutant”.
Consider `COc1cc2sc(CNC(=O)C3(CC(=O)[O-])Cc4ccccc4C3)nc2cc1OCCOCC[N+](C)(C)C` [Example 5, 2-[2-[[6-methoxy-5-[2-[2-(trimethylammonio)ethoxy]ethoxy]-1,3-benzothiazol-2-yl]methylcarbamoyl]indan-2-yl]acetate], for which the inhibition at 25 µM in assay [1] fell in the range of 60 to 75%.
Regarding `COc1cc2sc(CNC(=O)C3(CC(=O)[O-])Cc4cc(F)c(F)cc4C3)nc2cc1OCCOCC[N+](C)(C)C` [Example 6, 2-[5,6-difluoro-2-[[6-methoxy-5-[2-[2-(trimethylammonio)ethoxy]ethoxy]-1,3-benzothiazol-2-yl]methylcarbamoyl]indan-2-yl]acetate], the inhibition at 25 µM in assay [1] was over 75%.
For `COc1cc2sc(CNC(=O)C3(CC(=O)[O-])Cc4cc(F)c(F)cc4C3)nc2cc1OCC[N+](C)(C)C` [Example 7, 2-[5,6-difluoro-2-[[6-methoxy-5-[2-(trimethylammonio)ethoxy]-1,3-benzothiazol-2-yl]methylcarbamoyl]indan-2-yl]acetate], the inhibition at 25 µM in assay [1] fell in the range of 60 to 75%.
